# Reference: patent publication US7989179B2, “LXR ligand testing method” (Daiichi Sankyo Company, Limited, priority 2005, dated 2011)
# Columns and labels:
# THP-1 cells = assay: Cholesterol efflux assay; type: cell-based; conditions: compound final concentration 0.1 μM, 24 hours
# Experimental: 3×10^5 THP-1 cells (ATCC No.: TIB-202) were disseminated in a 96-well white plate (Costar) followed by the addition of 200 nM Phorbol 12-Myristate 13-Acetate (Sigma) and culturing for 24 hours at 37° C. in a CO2 incubator. […] Following completion of culturing, 100 μl of PBS containing 0.2% bovine serum albumin (hereinafter referred to as “BSA”, (Sigma Chemical)) were added to each well to wash the cells. Next, 100 μl of RPMI 1640 containing Apolipoprotein A1 (hereinafter referred to as “ApoA1”, (Biogenesis)) at a final concentration of 10 μg/ml, or RPMI 1640 not containing ApoA1, were added to each well. […] Following completion of culturing, the plate was centrifuged for 5 minutes at 1,000 rpm and 4° C. 75 μl of medium in the form of the centrifuged supernatant were transferred to a 96-well Luma plate (Packard) and allowed to dry. […] 20 (Packard) were added to each well of the plate containing the washed cells and allowed to stand overnight, followed by measuring the radioactivity of the medium and cells with a scintillation counter (Top Count, Packard). Percent (%) efflux was calculated from the measured values using the calculation formula shown below. % efflux=(Specific radioactivity of medium(CPM)/75×100)/(Specific radioactivity of medium(CPM)+specific radioactivity of cells(CPM))×100 […]
# [1] = biological target: T1, heterodimer comprising LXRα and RXRα (Homo sapiens, UniProt Q13133, A196R); assay: FRET assay of coactivator peptide binding to His-LXRα/FLAG-RXRα; type: biochemical
# T1 construct: amino acid nos; made in house; host or cells: Escherichia coli BL21(DE3)
# T1 sequence (Q13133 164-447 A196R): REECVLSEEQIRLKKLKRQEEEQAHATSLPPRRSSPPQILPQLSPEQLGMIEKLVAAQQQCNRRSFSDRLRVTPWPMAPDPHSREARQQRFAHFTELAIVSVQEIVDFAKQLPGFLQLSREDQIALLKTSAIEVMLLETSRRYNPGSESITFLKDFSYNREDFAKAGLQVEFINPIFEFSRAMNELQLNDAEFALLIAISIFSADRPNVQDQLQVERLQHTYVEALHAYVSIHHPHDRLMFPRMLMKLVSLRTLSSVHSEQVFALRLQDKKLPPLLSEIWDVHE
# T1 sequence (P19793 201-462 partner limits assumed): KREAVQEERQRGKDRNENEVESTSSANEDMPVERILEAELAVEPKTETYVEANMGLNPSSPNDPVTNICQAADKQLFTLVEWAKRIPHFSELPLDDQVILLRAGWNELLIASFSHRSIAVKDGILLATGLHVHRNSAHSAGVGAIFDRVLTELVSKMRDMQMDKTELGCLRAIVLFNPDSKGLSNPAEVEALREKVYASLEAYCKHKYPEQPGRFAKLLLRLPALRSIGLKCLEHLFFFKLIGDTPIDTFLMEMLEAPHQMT
# Experimental: 8 μl of LXRα reaction solution (0.05 μl of 4 μM His-LXRα and FLAG-RXRα mixed solution, 1.00 μl of 10×PBS (Sigma Chemical), 2.50 μl of 2 M KF (Wako Pure Chemical Industries), 0.10 μl of 10% NP40 (Sigma Chemical), 0.15 μl of anti-His tag antibody (CIS Bio International) and 4.20 μl of H2O) containing the His-LXRα and FLAG-RXRα prepared according to Example 1 were placed in a 384-well assay plate (Greiner Bio-One).
# Next, 2 μl of a solution of Compound A (N-(2,2,2-trifluoroethyl)-N-{4-[2,2,2-trifluoro-1-hydroxy-1-(trifluoromethyl)ethyl]phenyl}benzene sulfonamide (Compound 12 described on page 55 of International Publication WO2000/054759) or Compound B (3-chloro-4-(3-(2-propyl-3-trifluoromethyl-6-benz-[4,5]-isooxazoloxy)propylthio)phenylacetic acid (a compound described in Example 20 on page 70 of International Publication WO1997/028137), dissolved to a concentration of 10 μM in dimethyl sulfoxide (hereinafter referred to as “DMSO”), were added to each well of a 384-well assay plate followed by incubating for 1 hour at room temperature.
# Next, 10 μl of peptide reaction solution (1.00 μl of 5 μM peptide, 1.00 μl of 10×PBS, 2.50 μl of 2 M KF, 0.10 μl of 10% NP40, 0.20 μl of streptavidin (CIS Bio International) and 5.20 μl of H2O) were added to each well of the 384-well assay plate and incubated for 17 hours at 4° C. The peptide added here was comprising of any of the amino acid sequences of (a) to (g) below, and the amino acid of the N-terminal was biotinylated.
# Following completion of incubation, the assay plate was subjected to excitation light at 337 nm using a fluorescent plate reader (Envision, Perkin-Elmer), and fluorescent absorbance at 665 nm and 620 nm was measured to determine the binding capacity between the protein and the peptide.
# The value obtained by multiplying 1000 by the value resulting from dividing the measured value at 665 nm when applying excitation light at 337 nm by the measured value at 620 nm was determined. This value was then divided by the value determined by the same method when only DMSO was added without adding LXR ligand (Compound A or Compound B), and this value was then multiplied by 100 and indicated as the percentage relative to the control (% of control) as shown in Table 6.
# The value for % of control determined here is the value, represented by a percentage, that indicates the ratio of the increase in the amount of coactivator bound to LXRα that results from adding LXR ligand, and the larger this value, the larger the amount of coactivator that binds to LXRα.
# (1) According to the same method as Example 2) (using the following peptides (h) to (m), instead of the peptides (a) to (g) in Example 2), the amount of coactivator bound to the heterodimer LXRα and RXRα were determined.
# [2] = biological target: T2, heterodimer comprising LXRβ and RXRα (Homo sapiens, UniProt P55055, DUP175-175); assay: FRET assay of coactivator peptide binding to His-LXRβ/FLAG-RXRα; type: biochemical
# T2 construct: made in house; host or cells: Escherichia coli BL21(DE3)
# T2 sequence (P55055 with tags, fused parts or gaps DUP175-175): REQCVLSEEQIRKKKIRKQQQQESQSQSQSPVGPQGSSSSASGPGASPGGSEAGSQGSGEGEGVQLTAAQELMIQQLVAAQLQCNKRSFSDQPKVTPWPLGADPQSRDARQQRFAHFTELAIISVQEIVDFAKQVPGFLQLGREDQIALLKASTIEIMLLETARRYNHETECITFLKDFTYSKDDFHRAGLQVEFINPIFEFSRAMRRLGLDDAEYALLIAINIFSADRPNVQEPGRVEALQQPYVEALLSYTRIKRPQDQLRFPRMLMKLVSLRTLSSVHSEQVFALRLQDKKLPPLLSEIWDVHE
# T2 sequence (P19793 201-462 partner limits assumed): T1 sequence (P19793 201-462 partner limits assumed)
# Experimental: 8 μl of LXRβ reaction solution (0.025 μl of 8 μM His-LXRβ and FLAG-RXRα mixed solution, 1.00 μl of 10×PBS, 2.50 μl of 2 M KF, 0.10 μl of 10% NP40, 0.15 μl of anti-His tag antibody and 4.23 μl of H2O) containing the His-LXRβ and FLAG-RXRα prepared according to Example 1 were placed in a 384-well assay plate (Greiner Bio-One) and measured according to the same method as Example 2 to determine the % of control (Table 6). There was no significant difference observed in the resulting values between Compound A and Compound B.
# (2) […]: According to the same method in Example 3) (using the above peptides (h) to (m), instead of peptides (a) to (g) in Example 3), the amount of the coactivator bound to the heterodimer comprising LXRβ and RXRα were determined. There was no significant difference observed in the resulting values between Compound A and Compound B (Table 7).
# [3] = Cynomolgus monkey consecutive daily administration study; type: in vivo, cynomolgus monkeys; conditions: for Relative value of LDL Cholesterol in Plasma (% of control group) / Relative value of TG in Plasma (% of control group): male cynomolgus monkeys, force fed, PG/Tween
# Experimental: Five to seven year old, male cynomolgus monkeys in groups of 5 animals each were force fed only an administration base (Propylene glycol (Wako Pure Chemical Industries)/Tween 80 (Kao) (volume ratio: 4/1, hereinafter referred to as “PG/Tween”)) (hereinafter referred to as “the control group”), or Compound A or Compound B dissolved in PG/Tween in an amount of 3 mg/kg or 10 mg/kg once a day for 7 days between the hours of 8:00 and 10:00 AM. After fasting for 16 hours starting at 5:00 PM on the 7th day of administration, 1 mL of blood was collected from the cephalic vein with a heparinized syringe followed by centrifuging for 15 minutes at 4° C. and 5000 rpm to obtain plasma.
# The levels of LDL cholesterol and triglycerides in the plasma were measured with an auto analyzer (Hitachi Model 7170) followed by calculation of the % of control group (Tables 8 and 9).
# [4] = peptide ASC2 NR-1, 2 μl of 10 μM compound solution in DMSO
# [5] = peptide ASC2 NR-2, 2 μl of 10 μM compound solution in DMSO
# [6] = peptide PGC-1α, 2 μl of 10 μM compound solution in DMSO
# [7] = peptide SRC1-2, 2 μl of 10 μM compound solution in DMSO
# [8] = peptide SRC1-3, 2 μl of 10 μM compound solution in DMSO
# [9] = peptide SRC1-4, 2 μl of 10 μM compound solution in DMSO
# [10] = peptide TIF2, 2 μl of 10 μM compound solution in DMSO
smiles,measurement,setting,value
"O=S(=O)(c1ccccc1)N(CC(F)(F)F)c1ccc(C(O)(C(F)(F)F)C(F)(F)F)cc1 [Compound A, N-(2,2,2-trifluoroethyl)-N-{4-[2,2,2-trifluoro-1-hydroxy-1-(trifluoromethyl)ethyl]phenyl}benzenesulfonamide]","relative cholesterol efflux activity (% efflux, Compound A at 1 μM = 100)",THP-1 cells,86%
same,effect on amount of coactivator bound to LXRα (result in words),"[1]; Example 2, peptides (a) to (g)",increases the amount of coactivator bound to LXRα
same,LXRα (% of control),"[1]; peptide ACTR NRB3, same method as Example 2",167 % of control
same,LXRα (% of control),[1]; [4],155.8 % of control
same,LXRα (% of control),[1]; [5],254.0 % of control
same,LXRα (% of control),"[1]; peptide DAX1, same method as Example 2",158 % of control
same,LXRα (% of control),"[1]; peptide PERC NRB2, same method as Example 2",127 % of control
same,LXRα (% of control),[1]; [6],361.7 % of control
same,LXRα (% of control),"[1]; peptide PNRC, same method as Example 2",140 % of control
same,LXRα (% of control),[1]; [7],267.0 % of control
same,LXRα (% of control),[1]; [8],181.3 % of control
same,LXRα (% of control),[1]; [9],207.3 % of control
same,LXRα (% of control),[1]; [10],266.7 % of control
same,LXRα (% of control),"[1]; peptide TIF2 NRB2, same method as Example 2",268 % of control
same,LXRα (% of control),"[1]; peptide TRAP220, same method as Example 2",131 % of control
same,LXRβ (% of control),"[2]; peptide ACTR NRB3, same method as Example 3",129 % of control
same,LXRβ (% of control),[2]; [4],114.5 % of control
same,LXRβ (% of control),[2]; [5],120.4 % of control
same,LXRβ (% of control),"[2]; peptide DAX1, same method as Example 3",116 % of control
same,LXRβ (% of control),"[2]; peptide PERC NRB2, same method as Example 3",104 % of control
same,LXRβ (% of control),[2]; [6],191.0 % of control
same,LXRβ (% of control),"[2]; peptide PNRC, same method as Example 3",109 % of control
same,LXRβ (% of control),[2]; [7],120.4 % of control
same,LXRβ (% of control),[2]; [8],110.6 % of control
same,LXRβ (% of control),[2]; [9],154.6 % of control
same,LXRβ (% of control),[2]; [10],107.9 % of control
same,LXRβ (% of control),"[2]; peptide TIF2 NRB2, same method as Example 3",125 % of control
same,LXRβ (% of control),"[2]; peptide TRAP220, same method as Example 3",111 % of control
same,effect on plasma LDL cholesterol and triglyceride concentration (result in words),"[3]; cynomolgus monkeys, 7 days administration",increase LDL cholesterol concentration and triglyceride concentration in the plasma
same,Relative value of LDL Cholesterol in Plasma (% of control group),[3]; 3 mg/kg once a day for 7 days,137%
same,Relative value of TG in Plasma (% of control group),[3]; 3 mg/kg once a day for 7 days,429%
same,Relative value of LDL Cholesterol in Plasma (% of control group),[3]; 10 mg/kg once a day for 7 days,207%
same,Relative value of TG in Plasma (% of control group),[3]; 10 mg/kg once a day for 7 days,661%
